Patent US8349854B2, “Salts of 4-aniline quinazoline derivative” (priority 2007, dated 2013)
pIC50: −log10 of the molar value. Read-outs that look alike come from different tables or passages of the source.

Legend:
[1] = Solubility test in water and in methanol at room temperature; type: physicochemical; conditions: thermodynamic from solid
Experimental: According to the conventional method for determining the solubility, at the room temperature, a suitable amount of the compound to be tested was placed in 15 mL of water. Then the compound was dissolved by sufficient stir. The solution is placed at room temperature for 3 hours. Then 10 ml of the clear saturated supernatant was transferred into the weighing bottle with the pipette. The solvent was evaporated by heating, and the residue was dried and weighed to obtain the mass of the residue, which was the mass of the solute. After calculation, the solubility of the compound of formula (I) and the salts thereof in water can be obtained. The solubility of the compound to be tested in methanol was determined along the same lines.

[2] = Drug absorption in SD rat, intragastric administration (ig); type: in vivo
Experimental: (§1) The blood samples were collected 0.5, 1.0, 1.5, 2.0, 3.0, 5.0, 7.0, 9.0, 12 and 24 hours after administration, which were then centrifugated respectively to obtain the plasma. The concentration of the drug in the plasma was determined by means of liquid chromatography/tandem mass spectrometer, and the concentration-time curve was obtained.

Erb-B2 = Erb-B2 (Homo sapiens, UniProt P04626); conditions: in vitro; from PCT/CN2006/002786, result in words; cited from earlier work
[3] = tested on: human epidermoid squamous cancer cells A431; conditions: from PCT/CN2006/002786, result in words; cited from earlier work
[4] = tested on: human mammary cancer cells BT-474; conditions: from PCT/CN2006/002786, result in words; cited from earlier work
[5] = tested on: human epidermoid squamous cancer cells A431; conditions: from PCT/CN2006/002786, result in words; cited from earlier work; remark: listed apart in the source
EGFR tyrosine kinases = EGFR tyrosine kinases (Homo sapiens, UniProt P00533); test: Inhibitory effect on EGFR tyrosine kinases (ELISA, Poly(Glu,Tyr) 4:1); type: biochemical; conditions: result in words
Experimental: The plate coated with EGFR tyrosine kinases reaction substrate Poly(Glu, Tyr) 4:1 was washed three times with T-PBS and dried in oven at the temperature of 37° C. Every well was added with the ATP solution diluted with reaction buffer, the compound to be tested with grading concentrations and the tyrosine kinases to be tested in sequence to initiate the reaction. The plate was incubated in a shaker for 1 hour at the temperature of 37° C., and then was washed three times with T-PBS (the phosphate buffer containing 0.05% of Tween with a pH of 7.4). Antibody PY99 was added and the reaction was kept on at 37° C. for 1 hour. The plate was washed three times with T-PBS, HRP labeled goat anti mouse IgG was then added and incubated at 37° C. for 1 hour. The colorimetric solution of OPD (o-phenylenediamine) was added and the mixture was reacted in dark at room temperature for 1-10 min. The reaction was terminated by the addition of 2M of H2SO4. The OD value at wavelength of 492 nm was measured using the VersaMax™ microplate reader (MDC company, USA). The inhibitory effect of the samples on EGFR tyrosine kinases was determined by the following formula: Inhibition %=[1−(OD Value of the compound to be tested −OD Value of the control without enzyme)/(OD Value of the negative control−OD Value of the control without enzyme)]×100%.

[6] = tested on: human epidermatoid squamous cancer cell A431; test: Inhibition of proliferation of tumor cell lines (MTT), A431; type: cell-based; conditions: 72 h
Experimental: (§2) A DMSO solvent control well and a blank well were set in the plate. […] The incubation was continued for 4 h, and 50 μL of triple-expansion solution (10% SDS-5% of isobutyl alcohol-0.01 mol/L of HCl) was added. The plate was placed in the incubator overnight. The OD value was measured by the microplate reader at wavelength of 570 nm.

[7] = tested on: human breast cancer cell BT-474; test: Inhibition of proliferation of tumor cell lines (MTT), BT-474; type: cell-based; conditions: BT-474, MTT, 72 h
Experimental: as §2

[8] = SD rats, gavage 4 weeks, 20, 50, 100, 500 and 800 mg/(kg·day)
Experimental: Five test groups with the dose of 20, 50, 100, 500 and 800 mg/(kg·day) respectively and a solvent control group were set.

[9] = tested on: human ovarian cancer SKOV-3; test: Anti-tumor effect on human ovarian cancer SKOV-3 transplanted to the BALB/cA nude rat; type: in vivo
Experimental: A tumor SKOV-3 in vigorous growth period was selected and incised into several bits of an even size of about 1.5 mm^3, which was inoculated subcutaneously to the right armpit of the BALB/cA nude rats using trocar under sterile condition. The diameters of the transplanted tumors were measured with a vernier caliper. The animals were grouped randomly when the tumors reached a size of 80-100 mm^3. The tested animals of the group receiving the compounds to be tested were administrated with the compounds by gavage through mouth once daily for 3 weeks continuously. The positive control drug MMC (Mitomycin) was administered by intravenous injection once on the first day with a dose of 5 mg/kg. The negative control group was administered with 0.5% CMC-Na (Carboxymethyl Cellulose Sodium) with a dose of 0.2 mL/per rat. The major axis (a) and the minor axis (b) of the tumors were measured twice every week and the rats were weighed at the same time. According to the formula V=ab^2/2, the tumor volume (mm^3) could be calculated, based on which the relative tumor volume (RTV) was determined (Formula: RTV=Vt/V0, wherein V0 represents the tumor volume measured at the grouping time (i.e. d0), and Vt represents the tumor volume measured each time). The relative tumor proliferation rate T/C (%) was chosen here to evaluate the anti-tumor activity, which can be calculated according to the following formula: T/C(%)=(TRTV/CRTV)×100%
TRTV: RTV of the group receiving the compounds to be tested; CRTV: RTV of negative control group

[10] = Drug absorption in SD rat, intravenous injection (iv); type: in vivo; conditions: 5 mg/kg
Experimental: as §1, with “collected 5 min, 15 min,” for “collected”, “0.5,” for “0.5, 1.0,”, “3.0, 4.0,” for “3.0,”, “7.0” for “7.0, 9.0, 12 and 24”

[11] = tested on: human epidermatoid squamous cancer A431; test: Anti-tumor effect on human epidermatoid squamous cancer A431 transplanted to the BALB/cA nude rat; type: in vivo; conditions: for Weight of animals (without tumor) / inhibition for tumor % / Weight of tumors x ± SD: 13 days; for Weight of tumors x ± SD: 23 days after inoculation
Experimental: A well-developed solid tumor A431 was selected and incised into several bits of an even size of 2-3 mm, with one bit being inoculated subcutaneously to the right armpit of each of the BALB/cA nude rats using trocar. 7 days after inoculation, the rats were grouped randomly and were administrated with the compounds by gavage through mouth for 13 days continuously. The major axis (a) and the minor axis (b) of the tumors were measured with a vernier caliper every 4 days. According to the formula V=ab^2/2, the tumor volume (mm^3) could be calculated. The tested animals were neck-off killed 23 days after the inoculation, and anatomized to obtain the tumors. The tumors were weighed and the inhibitory effect of the compounds to be tested was figured out.

[12] = SD rat, ig, dosage 21.68 (formula (I)), 23.42 (hydrochloride), 30 mg/kg (p-toluenesulfonate)
[13] = SD rat, revised by dosage, calculated by AUC0-t
[14] = 5 mg/kg iv once on the first day, after 3 weeks
[15] = 50 mg/kg ig once daily for 3 weeks
[16] = 100 mg/kg ig once daily for 3 weeks
[17] = 200 mg/kg ig once daily for 3 weeks

Erb-B2, sequence (P04626 23-1255, species assumed): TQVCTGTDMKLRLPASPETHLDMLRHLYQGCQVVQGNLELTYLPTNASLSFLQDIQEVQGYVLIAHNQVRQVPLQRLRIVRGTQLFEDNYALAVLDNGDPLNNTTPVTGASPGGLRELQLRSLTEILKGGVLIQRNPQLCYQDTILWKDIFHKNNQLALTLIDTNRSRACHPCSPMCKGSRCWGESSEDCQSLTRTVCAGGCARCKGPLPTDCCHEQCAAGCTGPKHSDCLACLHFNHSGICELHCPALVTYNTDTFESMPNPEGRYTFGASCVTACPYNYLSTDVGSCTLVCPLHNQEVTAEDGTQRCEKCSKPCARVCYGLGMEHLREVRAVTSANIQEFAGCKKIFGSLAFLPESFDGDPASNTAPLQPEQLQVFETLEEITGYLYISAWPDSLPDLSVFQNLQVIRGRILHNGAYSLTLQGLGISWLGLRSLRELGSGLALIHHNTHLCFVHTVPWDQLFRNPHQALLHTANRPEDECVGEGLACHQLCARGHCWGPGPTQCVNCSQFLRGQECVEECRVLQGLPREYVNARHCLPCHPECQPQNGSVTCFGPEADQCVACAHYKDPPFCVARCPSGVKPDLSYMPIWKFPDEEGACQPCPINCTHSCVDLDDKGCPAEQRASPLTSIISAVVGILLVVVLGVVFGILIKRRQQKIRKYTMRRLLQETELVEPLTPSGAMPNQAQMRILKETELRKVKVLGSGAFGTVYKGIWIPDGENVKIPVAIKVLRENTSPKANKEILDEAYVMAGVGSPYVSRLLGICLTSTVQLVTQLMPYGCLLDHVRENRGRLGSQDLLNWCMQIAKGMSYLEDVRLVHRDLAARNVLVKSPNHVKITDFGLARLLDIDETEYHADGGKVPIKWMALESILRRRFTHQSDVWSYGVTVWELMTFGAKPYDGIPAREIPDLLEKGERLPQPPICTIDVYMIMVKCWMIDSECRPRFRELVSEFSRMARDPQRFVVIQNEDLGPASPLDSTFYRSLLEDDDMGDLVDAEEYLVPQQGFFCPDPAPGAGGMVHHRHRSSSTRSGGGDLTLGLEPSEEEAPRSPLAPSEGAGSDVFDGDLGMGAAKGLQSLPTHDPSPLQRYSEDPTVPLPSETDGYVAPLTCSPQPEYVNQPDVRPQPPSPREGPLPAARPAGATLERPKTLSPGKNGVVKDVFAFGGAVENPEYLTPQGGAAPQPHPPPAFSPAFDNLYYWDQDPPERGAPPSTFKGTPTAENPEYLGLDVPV

C=CC(=O)Nc1ccc2ncnc(Nc3ccc(OCc4cccc(F)c4)c(Cl)c3)c2c1 [Compound of formula (I), N-{4-[3-chloro-4-(3-fluoro-benzyloxy)phenylamino]quinazolin-6-yl}-acrylamide]
solubility at 3 h ([1]; organic solvent or mixture, methanol, read-out: Solubility in methanol(/mL)): < 1000 µg/mL | solubility at 3 h ([1]; water, read-out: Solubility in water(/mL)): < 0.01 µg/mL | half-life ([2]; male, SD, rat, plasma, po, 30 mg/kg): 1.81 h | AUC0-t ([2]; male, SD, rat, plasma, po, 30 mg/kg, read-out: AUC0-t): 106 ng·h/mL | Cmax ([2]; male, SD, rat, plasma, po, 30 mg/kg, read-out: Cmax): 32 ng/mL | Tmax ([2]; male, SD, rat, plasma, po, 30 mg/kg, read-out: Tmax): 0.75 h | bioavailability ([2]; male, plasma, po, 21.68 mg/kg, SD rat, revised by dosage, calculated by AUC0-t, read-out: absolute bioavailability by ig): 0.95% | inhibitory activity against Erb-B2 (Erb-B2): excellent inhibitory activity | inhibitory activity of human epidermoid squamous cancer cells A431 [3]: relatively good inhibitory activity | inhibitory activity of human mammary cancer cells BT-474 [4]: relatively good inhibitory activity | anti-tumor effect on A431 transplanted to a nude rat [5]: conspicuous anti-tumor effect

C=CC(=O)Nc1ccc2ncnc(Nc3ccc(OCc4cccc(F)c4)c(Cl)c3)c2c1.Cl [Hydrochloride, The hydrochloride of N-{4-[3-chloro-4-(3-fluoro-benzyloxy)phenyl-amino]-quinazolin-6-yl}-acrylamide]
AUC0-t [2, 12]: 1038 ng·h/mL | Cmax [2, 12]: 289 ng/mL | T1/2 [2, 12]: 1.27 h | Tmax [2, 12]: 2.25 h | absolute bioavailability by ig [2, 13]: 9.30% | inhibitory activity of EGFR tyrosine kinases (EGFR tyrosine kinases): excellent inhibitory activity | pIC50 ([6]; listed as hydrochloride): 6.08 | pIC50 ([7]; listed as hydrochloride): 6.34 | food intake [8]: normal food intake | physical signs, appearance, behaviors, activities or shape of dejecta [8]: no abnormality

CO[C@@]12[C@H](COC(N)=O)C3=C(C(=O)C(C)=C(N)C3=O)N1C[C@@H]1N[C@@H]12 [MMC, Mitomycin, reference compound]
RTV [9, 14]: 3.1 ± 0.5 | T/C [9, 14]: 32.0% | Volume of tumor V21 [9, 14]: 258 ± 77 mm^3

C=CC(=O)Nc1ccc2ncnc(Nc3ccc(OCc4cccc(F)c4)c(Cl)c3)c2c1.CS(=O)(=O)O [Methanesulfonate, Methanesulfonate of N-{4-[3-chloro-4-(3-fluoro-benzyloxy)phenylamino]-quinazolin-6-yl}-acrylamide]
inhibitory activity of EGFR tyrosine kinases (EGFR tyrosine kinases): excellent inhibitory activity | food intake [8]: normal food intake | physical signs, appearance, behaviors, activities or shape of dejecta [8]: no abnormality

C=CC(=O)Nc1ccc2ncnc(Nc3ccc(OCc4cccc(F)c4)c(Cl)c3)c2c1.O=C(O)C(=O)O [Oxalate, Oxalate of N-{4-[3-chloro-4-(3-fluoro-benzyloxy)phenylamino]-quinazolin-6-yl}-acrylamide]
inhibitory activity of EGFR tyrosine kinases (EGFR tyrosine kinases): excellent inhibitory activity | food intake [8]: normal food intake | physical signs, appearance, behaviors, activities or shape of dejecta [8]: no abnormality

C=CC(=O)Nc1ccc2ncnc(Nc3ccc(OCc4cccc(F)c4)c(Cl)c3)c2c1.Cc1ccc(S(=O)(=O)O)cc1 [p-Toluenesulfonate, p-Toluenesulfonate of N-{4-[3-chloro-4-(3-fluoro-benzyloxy)phenylamino]quinazolin-6-yl}-acrylamide]
AUC0-t [2, 12]: 1235 ng·h/mL | Cmax [2, 12]: 333 ng/mL | T1/2 [2, 12]: 1.22 h | Tmax [2, 12]: 3.38 h | absolute bioavailability by ig [2, 13]: 11.07% | AUC0-t [10]: 1860 ng·h/mL | Cmax [10]: 1745 ng/mL | T1/2 [10]: 1.55 h | Tmax [10]: 4.98 min | inhibitory activity of EGFR tyrosine kinases (EGFR tyrosine kinases): excellent inhibitory activity | pIC50 [6]: 6.14 | pIC50 [7]: 6.38 | Weight of animals (without tumor) ([11]; 25 mg/kg ig): 21.58 ± 2.18 g | inhibition for tumor % ([11]; 25 mg/kg ig): 29.99% | Weight of tumors x ± SD ([11]; 25 mg/kg ig): 0.79 ± 0.20 g | Weight of animals (without tumor) ([11]; 50 mg/kg ig): 22.05 ± 1.59 g | inhibition for tumor % ([11]; 50 mg/kg ig): 37.15% | Weight of tumors x ± SD ([11]; 50 mg/kg ig): 0.71 ± 0.20 g | Weight of animals (without tumor) ([11]; 100 mg/kg ig): 22.35 ± 1.92 g | inhibition for tumor % ([11]; 100 mg/kg ig): 48.65% | Weight of tumors x ± SD ([11]; 100 mg/kg ig): 0.58 ± 0.21 g | inhibitory effect on the tumors (A431 xenograft) ([11]; result in words): significant inhibitory effect | RTV [9, 15]: 5.1 ± 1.7 | T/C [9, 15]: 53.0% | Volume of tumor V21 [9, 15]: 421 ± 89 mm^3 | RTV [9, 16]: 4.3 ± 1.3 | T/C [9, 16]: 45.0% | Volume of tumor V21 [9, 16]: 345 ± 88 mm^3 | RTV [9, 17]: 3.5 ± 0.8 | T/C [9, 17]: 36.9% | Volume of tumor V21 [9, 17]: 303 ± 72 mm^3 | tumor inhibitory effect (SKOV-3 xenograft) ([9]; result in words): conspicuous tumor inhibitory effect | food intake [8]: normal food intake | physical signs, appearance, behaviors, activities or shape of dejecta [8]: no abnormality

Tartrate of N-{4-[3-chloro-4-(3-fluoro-benzyloxy)phenylamino]-quinazolin-6-yl}-acrylamide
inhibitory activity of EGFR tyrosine kinases (EGFR tyrosine kinases): excellent inhibitory activity | food intake [8]: normal food intake | physical signs, appearance, behaviors, activities or shape of dejecta [8]: no abnormality | weight and weight growth of the rats [8]: basically similar to the control group with no statistical difference
